Legend:
Experiment in all cases: viability relative to DMSO control (fraction); higher = less drug effect (more viable cells)
Details in all cases: 48 h
Palbociclib = compound: CC(=O)c1c(C)c2cnc(Nc3ccc(N4CCNCC4)cn3)nc2n(C2CCCC2)c1=O [Palbociclib]
Procedure, shortened: (§1)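 The cells were primary mononuclear tumour cells, either fresh or cryopreserved, isolated by Ficoll from blood or bone marrow or derived from processed lymph node. Each well of a 384-well plate received 4 × 10^4 cells onto compounds pre-plated at five concentrations, with one well per concentration. The medium was RPMI-1640 with penicillin/streptomycin, L-glutamine and human serum, and plates stood at 37 °C and 5% CO2 for 48 h. Viability is reported as CellTiter-Glo luminescence relative to the median of 16 inner DMSO wells.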

Navitoclax = compound: CC1(C)CCC(c2ccc(Cl)cc2)=C(CN2CCN(c3ccc(C(=O)NS(=O)(=O)c4ccc(N[C@H](CCN5CCOCC5)CSc5ccccc5)c(S(=O)(=O)C(F)(F)F)c4)cc3)CC2)C1 [Navitoclax]
Procedure, shortened: as §1

Barasertib = compound: CCN(CCCOc1ccc2c(Nc3cc(CC(=O)Nc4cccc(F)c4)[nH]n3)ncnc2c1)CCOP(=O)(O)O [Barasertib]
Procedure, shortened: as §1

I-BET-762 = compound: CCNC(=O)C[C@@H]1N=C(c2ccc(Cl)cc2)c2cc(OC)ccc2-n2c(C)nnc21 [I-BET-762]
Procedure, shortened: as §1

Roscovitine = compound: CC[C@H](CO)Nc1nc(NCc2ccccc2)c2ncn(C(C)C)c2n1 [Roscovitine]
Procedure, shortened: as §1

Etoposide = compound: COc1cc([C@@H]2c3cc4c(cc3[C@@H](O[C@@H]3O[C@@H]5CO[C@@H](C)O[C@H]5[C@H](O)[C@H]3O)[C@H]3COC(=O)[C@H]23)OCO4)cc(OC)c1O [Etoposide]
Procedure, shortened: as §1

Duvelisib = compound: C[C@H](Nc1ncnc2nc[nH]c12)c1cc2cccc(Cl)c2c(=O)n1-c1ccccc1 [Duvelisib]
Procedure, shortened: as §1

Bendamustine = compound: Cn1c(CCCC(=O)O)nc2cc(N(CCCl)CCCl)ccc21 [Bendamustine]
Procedure, shortened: as §1

Pomalidomide = compound: Nc1cccc2c1C(=O)N(C1CCC(=O)NC1=O)C2=O [Pomalidomide]
Procedure, shortened: as §1

Selinexor = compound: O=C(/C=C\n1cnc(-c2cc(C(F)(F)F)cc(C(F)(F)F)c2)n1)NNc1cnccn1 [Selinexor]
Procedure, shortened: as §1

[1] = compound: O=C(NO)c1cccc(C(=O)NCCc2ccccc2)c1
Procedure, shortened: as §1

[2] = compound: O=C(Nc1ccc2[nH]nc(-c3ccncc3)c2c1)[C@@H]1CCN(CC(=O)N2CCN(c3ccc(-c4ncccn4)cc3)CC2)C1
Procedure, shortened: as §1

Filgotinib = compound: O=C(Nc1nc2cccc(-c3ccc(CN4CCS(=O)(=O)CC4)cc3)n2n1)C1CC1 [Filgotinib]
Procedure, shortened: as §1

Chlorambucil = compound: O=C(O)CCCc1ccc(N(CCCl)CCCl)cc1 [Chlorambucil]
Procedure, shortened: as §1

Thalidomide = compound: O=C1CCC(N2C(=O)c3ccccc3C2=O)C(=O)N1 [Thalidomide]
Procedure, shortened: as §1

Test System: primary MCL patient cells (S041)
- viability (Palbociclib; 0.024 µM): 0.933
- viability (Palbociclib; 0.12 µM): 0.948
- viability (Palbociclib; 0.6 µM): 0.9
- viability (Palbociclib; 3 µM): 0.738
- viability (Palbociclib; 15 µM): 0.439
- viability (Navitoclax; 0.0032 µM): 1
- viability (Navitoclax; 0.016 µM): 0.884
- viability (Navitoclax; 0.08 µM): 0.64
- viability (Navitoclax; 0.4 µM): 0.133
- viability (Navitoclax; 2 µM): 0.0285
- viability (Barasertib; 0.0008 µM): 0.907
- viability (Barasertib; 0.004 µM): 0.919
- viability (Barasertib; 0.02 µM): 0.947
- viability (Barasertib; 0.1 µM): 0.965
- viability (Barasertib; 0.5 µM): 1.01
- viability (I-BET-762; 0.008 µM): 0.967
- viability (I-BET-762; 0.04 µM): 0.999
- viability (I-BET-762; 0.2 µM): 0.954
- viability (I-BET-762; 1 µM): 0.819
- viability (I-BET-762; 5 µM): 0.777
- viability (Roscovitine; 0.032 µM): 0.99
- viability (Roscovitine; 0.16 µM): 0.965
- viability (Roscovitine; 0.8 µM): 1.07
- viability (Roscovitine; 4 µM): 0.995
- viability (Roscovitine; 20 µM): 0.593
- viability (Etoposide; 0.032 µM): 1.04
- viability (Etoposide; 0.16 µM): 0.982
- viability (Etoposide; 0.8 µM): 0.968
- viability (Etoposide; 4 µM): 0.941
- viability (Etoposide; 20 µM): 0.733
- viability (Duvelisib; 0.0016 µM): 0.89
- viability (Duvelisib; 0.008 µM): 0.872
- viability (Duvelisib; 0.04 µM): 0.857
- viability (Duvelisib; 0.2 µM): 0.855
- viability (Duvelisib; 1 µM): 0.838
- viability (Bendamustine; 0.032 µM): 0.996
- viability (Bendamustine; 0.16 µM): 1.05
- viability (Bendamustine; 0.8 µM): 0.988
- viability (Bendamustine; 4 µM): 0.958
- viability (Bendamustine; 20 µM): 0.788
- viability (Pomalidomide; 0.0032 µM): 1.01
- viability (Pomalidomide; 0.016 µM): 1.03
- viability (Pomalidomide; 0.08 µM): 1.03
- viability (Pomalidomide; 0.4 µM): 0.943
- viability (Pomalidomide; 2 µM): 0.94
- viability (Selinexor; 0.008 µM): 0.887
- viability (Selinexor; 0.04 µM): 0.809
- viability (Selinexor; 0.2 µM): 0.672
- viability (Selinexor; 1 µM): 0.42
- viability (Selinexor; 5 µM): 0.478
- viability ([1]; 0.024 µM): 1.01
- viability ([1]; 0.12 µM): 1.14
- viability ([1]; 0.6 µM): 1.03
- viability ([1]; 3 µM): 1.04
- viability ([1]; 15 µM): 1.07
- viability ([2]; 0.008 µM): 0.979
- viability ([2]; 0.04 µM): 0.985
- viability ([2]; 0.2 µM): 0.959
- viability ([2]; 1 µM): 0.927
- viability ([2]; 5 µM): 0.862
- viability (Filgotinib; 0.024 µM): 0.953
- viability (Filgotinib; 0.12 µM): 0.988
- viability (Filgotinib; 0.6 µM): 0.965
- viability (Filgotinib; 3 µM): 0.968
- viability (Filgotinib; 15 µM): 0.386
- viability (Chlorambucil; 0.032 µM): 0.971
- viability (Chlorambucil; 0.16 µM): 0.95
- viability (Chlorambucil; 0.8 µM): 0.993
- viability (Chlorambucil; 4 µM): 0.896
- viability (Chlorambucil; 20 µM): 0.469
- viability (Thalidomide; 0.032 µM): 0.959
- viability (Thalidomide; 0.16 µM): 0.925
- viability (Thalidomide; 0.8 µM): 0.959
- viability (Thalidomide; 4 µM): 0.956
- viability (Thalidomide; 20 µM): 1

Test System: primary ALL patient cells (S088)
- viability (Palbociclib; 0.024 µM): 0.877
- viability (Palbociclib; 0.12 µM): 0.767
- viability (Palbociclib; 0.6 µM): 0.654
- viability (Palbociclib; 3 µM): 0.481
- viability (Palbociclib; 15 µM): 0.108
- viability (Navitoclax; 0.0032 µM): 1.01
- viability (Navitoclax; 0.016 µM): 0.751
- viability (Navitoclax; 0.08 µM): 0.386
- viability (Navitoclax; 0.4 µM): 0.189
- viability (Navitoclax; 2 µM): 0.106
- viability (Barasertib; 0.0008 µM): 0.716
- viability (Barasertib; 0.004 µM): 0.61
- viability (Barasertib; 0.02 µM): 0.415
- viability (Barasertib; 0.1 µM): 0.614
- viability (Barasertib; 0.5 µM): 0.588
- viability (I-BET-762; 0.008 µM): 0.856
- viability (I-BET-762; 0.04 µM): 0.906
- viability (I-BET-762; 0.2 µM): 0.857
- viability (I-BET-762; 1 µM): 0.522
- viability (I-BET-762; 5 µM): 0.444
- viability (Roscovitine; 0.032 µM): 0.619
- viability (Roscovitine; 0.16 µM): 0.669
- viability (Roscovitine; 0.8 µM): 0.615
- viability (Roscovitine; 4 µM): 0.607
- viability (Roscovitine; 20 µM): 0.319
- viability (Etoposide; 0.032 µM): 0.996
- viability (Etoposide; 0.16 µM): 0.93
- viability (Etoposide; 0.8 µM): 0.856
- viability (Etoposide; 4 µM): 0.607
- viability (Etoposide; 20 µM): 0.216
- viability (Duvelisib; 0.0016 µM): 0.927
- viability (Duvelisib; 0.008 µM): 0.988
- viability (Duvelisib; 0.04 µM): 0.879
- viability (Duvelisib; 0.2 µM): 0.85
- viability (Duvelisib; 1 µM): 0.691
- viability (Bendamustine; 0.032 µM): 1
- viability (Bendamustine; 0.16 µM): 1.07
- viability (Bendamustine; 0.8 µM): 1
- viability (Bendamustine; 4 µM): 0.929
- viability (Bendamustine; 20 µM): 0.679
- viability (Pomalidomide; 0.0032 µM): 0.934
- viability (Pomalidomide; 0.016 µM): 1.08
- viability (Pomalidomide; 0.08 µM): 1.15
- viability (Pomalidomide; 0.4 µM): 1.05
- viability (Pomalidomide; 2 µM): 1.1
- viability (Selinexor; 0.008 µM): 0.494
- viability (Selinexor; 0.04 µM): 0.339
- viability (Selinexor; 0.2 µM): 0.115
- viability (Selinexor; 1 µM): 0.0421
- viability (Selinexor; 5 µM): 0.0377
- viability ([1]; 0.024 µM): 0.838
- viability ([1]; 0.12 µM): 0.868
- viability ([1]; 0.6 µM): 0.907
- viability ([1]; 3 µM): 0.931
- viability ([1]; 15 µM): 0.733
- viability ([2]; 0.008 µM): 0.545
- viability ([2]; 0.04 µM): 0.445
- viability ([2]; 0.2 µM): 0.393
- viability ([2]; 1 µM): 0.341
- viability ([2]; 5 µM): 0.297
- viability (Filgotinib; 0.024 µM): 0.831
- viability (Filgotinib; 0.12 µM): 0.961
- viability (Filgotinib; 0.6 µM): 0.825
- viability (Filgotinib; 3 µM): 0.893
- viability (Filgotinib; 15 µM): 0.751
- viability (Chlorambucil; 0.032 µM): 1.02
- viability (Chlorambucil; 0.16 µM): 1
- viability (Chlorambucil; 0.8 µM): 0.981
- viability (Chlorambucil; 4 µM): 0.71
- viability (Chlorambucil; 20 µM): 0.267
- viability (Thalidomide; 0.032 µM): 0.94
- viability (Thalidomide; 0.16 µM): 0.902
- viability (Thalidomide; 0.8 µM): 0.832
- viability (Thalidomide; 4 µM): 0.917
- viability (Thalidomide; 20 µM): 0.962

Source: the supplement of paper PMC10733146
